# Source: ChEMBL document CHEMBL2439949, “Synthesis and structure-activity relationships of phenyl-substituted coumarins with anti-tubercular activity that target FadD32” (Bioorg Med Chem Lett, 2013)
# Active and inactive are the calls of the source. The calls are words filed in the database; no cut-off is given here.
# Assays:
# [1] = tested on: Mycobacterium tuberculosis; assay: Antimycobacterial activity against Mycobacterium tuberculosis expressing FadD32 E120G mutant at 125 uM after 7 days; assay type: functional, organism-based
# [2] = tested on: Mycobacterium tuberculosis; assay: Antimycobacterial activity against Mycobacterium tuberculosis expressing FadD32 E120G mutant after 7 days; assay type: functional
SMILES,Activity [1],IC90 [2]
Cc1cc2oc(=O)cc(-c3ccccc3)c2c(C)c1-c1ccc(CNC2CCCCC2)cc1,inactive,32 µM
Cc1cc2oc(=O)cc(-c3ccccc3)c2c(C)c1-c1ccc(CN2CCCCC2)cc1,inactive,–
Cc1cc2oc(=O)cc(-c3cccc([N+](=O)[O-])c3)c2c(C)c1-c1ccc(CN2CCOCC2)cc1,inactive,–
Cc1cc2oc(=O)cc(-c3ccccc3)c2c(C)c1-c1ccc(C(C)O)cc1 (stereo not given),inactive,–
Cc1cc2oc(=O)cc(-c3ccc(N)cc3)c2c(C)c1-c1ccc(CN2CCOCC2)cc1,inactive,–
Cc1cc2oc(=O)cc(-c3ccccc3)c2c(C)c1-c1ccc(CN2CCN(C)CC2)cc1,inactive,–
CC(=O)Nc1cccc(-c2cc(=O)oc3cc(C)c(-c4ccc(CN5CCOCC5)cc4)c(C)c23)c1,inactive,–
Cc1cc2oc(=O)cc(-c3cccnc3)c2c(C)c1-c1ccc(CN2CCOCC2)cc1,inactive,–
Cc1cc2oc(=O)cc(-c3ccccc3)c2c(C)c1-c1ccc(CN2CCOCC2)cc1,inactive,–
Cc1cc2oc(=O)cc(-c3ccccc3)c2c(C)c1-c1ccncc1,inactive,–
CNC(=O)c1ccc(-c2c(C)cc3oc(=O)cc(-c4ccccc4)c3c2C)cc1,inactive,–
Cc1cc(CO)ccc1-c1c(C)cc2oc(=O)cc(-c3ccccc3)c2c1C,inactive,–
Cc1cc2oc(=O)cc(-c3ccccc3)c2c(C)c1-c1ccccc1Cl,inactive,–
Cc1cc2oc(=O)cc(-c3ccccc3)c2c(C)c1-c1ccc(CO)cc1,inactive,–
